Earlier results in patent US20250375404A1, “AN ORODISPERSIBLE PHARMACEUTICAL COMPOSITION OF BACLOFEN AND ITS PROCESS OF PREPARATION” (NOVUMGEN LIMITED, priority 2022, published 2025).

Details: in vivo

- Absorption from the gastro-intestinal tract: rapidly and completely absorbed
Compound: NCC(CC(=O)O)c1ccc(Cl)cc1 (stereo not shown) [Baclofen]
